The values below come from US5281580A, “Calcitonin-containing emulsion for nasal administration” (Toyo Jozo Company, Ltd., priority 1990, dated 1994).

Common to all, as to format: physicochemical
Data set [1] in a line: Stabilities of emulsions relating to added concentration of the azacycloalkane derivative (Example 2). The conditions noted are these: for Observation after 3 days standing / Observation after 7 days standing: room temperature. The method, then: Each 5 ml of a 1% (W/V) solution preliminarily prepared by dissolving dispotassium glycyrrhizate in distilled water was poured in each of 8 10-ml-test tubes, and thereto was added 1[2-(decylthio)ethyl] azacyclopentan-2-one chosen from the azacycloalkane derivatives so as to make a concentration ranging from 0 to 10%. Then, the mixture was agitated for 1 minute using Biomixer (NIHON SEIKI SEISAKUSHO) (15,000 rpm), to prepare each emulsion. The state of dispersion just after the preparation,or after 3 days or 7 days standing at room temperature was observed.

Data set [2] can be described thus: Turbidity just after preparation by extinction, index of emulsifiability (Example 1). The procedure:
(§1) […] The mixture was agitated under 15,000 rpm for 1 minute by Biomixer (NIHON SEIKI SEISAKUSHO) to prepare each emulsion. The state of dispersion just after the preparation and after 3 days standing at room temperature was observed. The turbidity just after the preparation was measured by extinction at 650 nm, and used as the index of emulsifiability.

Data set [3] can be described thus: Emulsifiability and stability of emulsions: state of dispersion observed (Example 1). The following applies: for Just after preparation (state of dispersion): 0.1 g azacycloalkane derivative + 5.0 ml; for After 3 days standing (state of dispersion): room temperature. The method, then: Using 1-[2-(decylthio)ethyl]azacyclopentan-2-one chosen from the azacycloalkane derivatives, and three emulsifying agents as follows, emulsifiabilities and stabilities of the emulsions were examined:
as §1

Where [4] appears, read: concentration 1.0% in 1% (W/V) dipotassium glycyrrhizate.
Setting [5] is: concentration 2.0% in 1% (W/V) dipotassium glycyrrhizate.

As for `CCCCCCCCCCSCCN1CCCC1=O` [1-[2-(decylthio)ethyl]azacyclopentan-2-one], the “emulsification and stability (in words)” value in data set [1] (concentration 0.01% to 10%, using 1% dipotassium glycyrrhizate) was “exhibited good emulsification and gave a stable emulsion”. In data set [1] (setting [4]), the “Observation just after preparation” value was “White clear”, the “Observation after 3 days standing” value is given as “White clear” and the “Observation after 7 days standing” value is recorded as “White clear”. In data set [1] (setting [5]), the “Observation just after preparation” value is on record as “White clear”, the “Observation after 3 days standing” value was “White clear” and the “Observation after 7 days standing” value is recorded as “White clear”.
Consider `CC1(C)[C@@H](O[C@H]2O[C@H](C(=O)[O-])[C@@H](O)[C@H](O)[C@H]2O[C@@H]2O[C@H](C(=O)[O-])[C@@H](O)[C@H](O)[C@H]2O)CC[C@]2(C)[C@H]3C(=O)C=C4[C@@H]5C[C@@](C)(C(=O)O)CC[C@]5(C)CC[C@@]4(C)[C@]3(C)CC[C@@H]12.[K+].[K+]` [dipotassium glycyrrhizate], for which the “Turbidity (650 nm)” value came out at 1.284 in data set [2] (emulsifying agent 0.1%); 0.459 in data set [2] (emulsifying agent 0.5%); 0.437 in data set [2] (emulsifying agent 1.0%); 0.405 in data set [2] (emulsifying agent 2.0%); 0.346 in data set [2] (emulsifying agent 3.0%); 0.006 in data set [2] (emulsifying agent 4.0%). Besides, the “Turbidity (650 nm)” value in data set [2] (emulsifying agent 5.0%) is on record as 0.006. Besides, the “Just after preparation (state of dispersion)” value in data set [3] (emulsifying agent 0.5%), in data set [3] (emulsifying agent 1.0%), in data set [3] (emulsifying agent 2.0%) and in data set [3] (emulsifying agent 3.0%) was “White clear” each time. The “After 3 days standing (state of dispersion)” value in data set [3] (emulsifying agent 0.5%), in data set [3] (emulsifying agent 1.0%), in data set [3] (emulsifying agent 2.0%) and in data set [3] (emulsifying agent 3.0%) was “White clear” throughout. The “emulsification (in words)” value in data set [3] (emulsifying agent at 0.1-5%) is listed as “good emulsification”. In data set [3] (emulsifying agent at 4-5%), the “dissolution (in words)” value was “full dissolution”.
